Patent US7365095B2, “Chromane and chromene derivatives and uses thereof” (Wyeth, priority 2005, dated 2008)
pEC50, pKd, pKi: −log10 of the molar value. Structures can show the parent of a compound that is named as a salt. Where two headings read alike, the source gives them in different places.

Key:
[1] = target: T1, human 5-hydroxytryptamine-2C (h5-HT2C) receptor (Homo sapiens, UniProt P28335); assay: [125I]DOI binding to membranes of CHO cells expressing h5-HT2C receptor
T1 construct: expressed in transfected cells; host or cells: CHO (Chinese Hamster Ovary) cells; membrane preparation
T1 sequence (P28335 33-458): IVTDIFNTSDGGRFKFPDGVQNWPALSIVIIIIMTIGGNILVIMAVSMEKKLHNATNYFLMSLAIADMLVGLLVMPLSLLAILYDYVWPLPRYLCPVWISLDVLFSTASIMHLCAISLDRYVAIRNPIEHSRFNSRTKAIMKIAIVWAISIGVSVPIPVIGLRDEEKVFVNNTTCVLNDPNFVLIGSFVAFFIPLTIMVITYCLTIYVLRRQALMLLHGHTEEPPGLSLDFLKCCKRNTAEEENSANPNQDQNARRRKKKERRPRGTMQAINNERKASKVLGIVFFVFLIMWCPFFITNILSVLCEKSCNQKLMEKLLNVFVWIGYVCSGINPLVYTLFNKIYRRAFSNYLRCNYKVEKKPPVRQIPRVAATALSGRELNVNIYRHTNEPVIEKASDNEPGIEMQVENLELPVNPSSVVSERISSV

human 5-HT2C receptor = target: T2, human 5-HT2C receptor (Homo sapiens, UniProt P28335); assay: calcium mobilization (FLIPR) in CHO cells stably expressing the human 5-HT2C receptor; assay type: cell-based; conditions: for Emax: CHO, read-out: 5-HT2C Function EMax (%); for pEC50: calcium mobilization, read-out: 5-HT2C Function EC50
T2 sequence (P28335 33-458): T1 sequence (P28335 33-458)

[2] = read-out: 5-HT2C Binding Ki avg

Row | Structure (SMILES) | pKi [1, 2] | Emax (human 5-HT2C receptor) | pEC50 (human 5-HT2C receptor) | pKi ([1]; reference compounds, 95% confidence interval in brackets, [125I]DOI displacement, read-out: Ki) | pKd ([1]; saturation binding with increasing concentrations of [125I] DOI, read-out: dissociation constant, KD)
1 | NC[C@@H]1CCc2cccc(-c3ccccc3)c2O1 [Compound 30, {[(2S)-8-phenyl-3,4-dihydro-2H-chromen-2-yl]methyl}amine hydrochloride] | < 7.30 |  |  |  | 
2 | CNC[C@H]1CCc2cc(F)cc(-c3cccnc3)c2O1 [Compound 44, {[(2R)-6-fluoro-8-pyridin-3-yl-3,4-dihydro-2H-chromen-2-yl]methyl}methylamine hydrochloride] | 7.30 to 8.00 | 80% | < 6.70 |  | 
3 | NC[C@@H]1CCc2cc(F)cc(-c3ccccc3)c2O1 [Compound 52, {[(2S)-6-fluoro-8-phenyl-3,4-dihydro-2H-chromen-2-yl]methyl}amine hydrochloride] | < 7.30 |  |  |  | 
4 | CNC[C@H]1CCc2cccc(-c3ccccc3C)c2O1 [Compound 8, N-methyl-N-{[(2R)-8-(2-methylphenyl)-3,4-dihydro-2H-chromen-2-yl]methyl}amine hydrochloride] | ≥ 8.00 | 100% | > 7.30 |  | 
5 | COc1ccccc1-c1cc(F)cc2c1O[C@@H](CN)C=C2 [Compound 65, {[(2R)-6-fluoro-8-(2-methoxyphenyl)-2H-chromen-2-yl]methyl}amine hydrochloride] | ≥ 8.00 | 80% | > 7.30 |  | 
6 | CNC[C@@H]1CCc2cccc(-c3ccc(Cl)cc3Cl)c2O1 [Compound 21, {[(2S)-8-(2,4-dichlorophenyl)-3,4-dihydro-2H-chromen-2-yl]methyl}methylamine hydrochloride] | < 7.30 | 80% | 6.70 to 7.30 |  | 
7 | NC[C@@H]1CCc2cc(F)cc(-c3ccc(Cl)cc3Cl)c2O1 [Compound 56, {[(2S)-8-(2,4-dichlorophenyl)-6-fluoro-3,4-dihydro-2H-chromen-2-yl]methyl}amine hydrochloride] | 7.30 to 8.00 | 80% | 6.70 to 7.30 |  | 
8 | Cc1ccccc1-c1cc(F)cc2c1O[C@@H](CN)CC2 [Compound 49, {[(2R)-6-fluoro-8-(2-methylphenyl)-3,4-dihydro-2H-chromen-2-yl]methyl}amine hydrochloride] | ≥ 8.00 | 90% | > 7.30 |  | 
9 | CNC[C@H]1CCc2cccc(-c3c(Cl)cccc3Cl)c2O1 [Compound 35, {[(2R)-8-(2,6-dichlorophenyl)-3,4-dihydro-2H-chromen-2-yl]methyl}methylamine hydrochloride] | ≥ 8.00 | 90% | > 7.30 |  | 
10 | CNC[C@H]1CCc2cccc(-c3ccccc3OC)c2O1 [Compound 6, N-{[(2R)-8-(2-methoxyphenyl)-3,4-dihydro-2H-chromen-2-yl]methyl}-N-methylamine hydrochloride] | ≥ 8.00 | 90% | > 7.30 |  | 
11 | NC[C@H]1CCc2cccc(-c3ccccc3)c2O1 [Compound 14, {[(2R)-8-phenyl-3,4-dihydro-2H-chromen-2-yl]methyl}amine hydrochloride] | 7.30 to 8.00 | 80% | < 6.70 |  | 
12 | NC[C@@H]1CCc2cccc(-c3cc(Cl)ccc3Cl)c2O1 [Compound 28, {[(2S)-8-(2,5-dichlorophenyl)-3,4-dihydro-2H-chromen-2-yl]methyl}amine hydrochloride] | 7.30 to 8.00 | 100% | 6.70 to 7.30 |  | 
13 | NC[C@@H]1CCc2cc(F)cc(-c3ccccc3Cl)c2O1 [Compound 51, {[(2S)-8-(2-chlorophenyl)-6-fluoro-3,4-dihydro-2H-chromen-2-yl]methyl}amine hydrochloride] | 7.30 to 8.00 | 80% | > 7.30 |  | 
14 | NCC1CCc2cccc(-c3ccccc3Cl)c2O1 (stereo not shown) [Compound 2, {[8-(2-chlorophenyl)-3,4-dihydro-2H-chromen-2-yl]methyl}amine trifluoroacetate] | ≥ 8.00 | 80% | > 7.30 |  | 
15 | CNC[C@@H]1CCc2cccc(-c3ccccc3)c2O1 [Compound 22, N-methyl-1-[(2S)-8-phenyl-3,4-dihydro-2H-chromen-2-yl]methanamine hydrochloride] | < 7.30 |  |  |  | 
16 | CNC[C@H]1CCc2cc(F)cc(-c3ccc(Cl)cc3Cl)c2O1 [Compound 41, {[(2R)-8-(2,4-dichlorophenyl)-6-fluoro-3,4-dihydro-2H-chromen-2-yl]methyl}methylamine hydrochloride] | 7.30 to 8.00 | 90% | 6.70 to 7.30 |  | 
17 | CNC[C@@H]1CCc2cccc(-c3ccc(OC)cc3OC)c2O1 [Compound 24, {[(2S)-8-(2,4-dimethoxyphenyl)-3,4-dihydro-2H-chromen-2-yl]methyl}methylamine hydrochloride] | 7.30 to 8.00 | 100% | 6.70 to 7.30 |  | 
18 | NC[C@@H]1CCc2cccc(-c3ccccc3Cl)c2O1 [Compound 27, {[(2S)-8-(2-chlorophenyl)-3,4-dihydro-2H-chromen-2-yl]methyl}amine hydrochloride] | 7.30 to 8.00 | 80% | 6.70 to 7.30 |  | 

Row | Structure (SMILES) | pKi [1, 2] | Emax (human 5-HT2C receptor) | pEC50 (human 5-HT2C receptor) | pKi ([1]; reference compounds, 95% confidence interval in brackets, [125I]DOI displacement, read-out: Ki) | pKd ([1]; saturation binding with increasing concentrations of [125I] DOI, read-out: dissociation constant, KD)
19 | COc1ccccc1-c1cccc2c1O[C@H](CN)CC2 [Compound 31, {[(2S)-8-(2-methoxyphenyl)-3,4-dihydro-2H-chromen-2-yl]methyl}amine hydrochloride] | < 7.30 |  |  |  | 
20 | NC[C@H]1CCCc2cc(F)cc(-c3c(Cl)cccc3Cl)c2O1 [Compound 68, {[(2R)-9-(2,6-dichlorophenyl)-7-fluoro-2,3,4,5-tetrahydro-1-benzoxepin-2-yl]methyl}amine hydrochloride] | 7.30 to 8.00 | 80% | 6.70 to 7.30 |  | 
21 | CNC[C@@H]1CCc2cccc(-c3ccccc3Cl)c2O1 [Compound 19, {[(2S)-8-(2-chlorophenyl)-3,4-dihydro-2H-chromen-2-yl]methyl}methylamine hydrochloride] | ≥ 8.00 | 80% | 6.70 to 7.30 |  | 
22 | CNC[C@@H]1CCc2cccc(-c3ccccc3OC)c2O1 [Compound 23, {[(2S)-8-(2-methoxyphenyl)-3,4-dihydro-2H-chromen-2-yl]methyl}methylamine hydrochloride] | < 7.30 |  |  |  | 
23 | NC[C@H]1CCc2ccc(F)c(-c3ccccc3Cl)c2O1 [Compound 71, ((2R)-8-(2-chlorophenyl)-7-fluorochroman-2-yl)methanamine hydrochloride] | ≥ 8.00 |  |  |  | 
24 | NCC1CCc2cc(F)cc(-c3ccccc3Cl)c2O1 (stereo not shown) [Compound 37, {[8-(2-chlorophenyl)-6-fluoro-3,4-dihydro-2H-chromen-2-yl]methyl}amine hydrochloride] | ≥ 8.00 | 100% | > 7.30 |  | 
25 | NC[C@H]1CCCc2cccc(-c3c(Cl)cccc3Cl)c2O1 [Compound 67, {[(2R)-9-(2,6-dichlorophenyl)-2,3,4,5-tetrahydro-1-benzoxepin-2-yl]methyl}amine hydrochloride] | 7.30 to 8.00 | 80% | 6.70 to 7.30 |  | 
26 | CNC[C@H]1CCc2cccc(-c3cccnc3)c2O1 [Compound 9, N-methyl-N-{[(2R)-8-pyridin-3-yl-3,4-dihydro-2H-chromen-2-yl]methyl}amine hydrochloride] | ≥ 8.00 | 100% | > 7.30 |  | 
27 | Cc1ccccc1-c1cccc2c1O[C@H](CN)CC2 [Compound 33, {[(2S)-8-(2-methylphenyl)-3,4-dihydro-2H-chromen-2-yl]methyl}amine hydrochloride] | 7.30 to 8.00 | 80% | < 6.70 |  | 
28 | NC[C@H]1CCc2cccc(-c3ccccc3Cl)c2O1 [Compound 11, {[(2R)-8-(2-chlorophenyl)-3,4-dihydro-2H-chromen-2-yl]methyl}amine hydrochloride] | ≥ 8.00 | 100% | > 7.30 |  | 
29 | CNCC1C=Cc2cc(F)cc(-c3ccccc3Cl)c2O1 (stereo not shown) [Compound 61, {[8-(2-chlorophenyl)-6-fluoro-2H-chromen-2-yl]methyl}methylamine hydrochloride] | ≥ 8.00 | 90% | > 7.30 |  | 
30 | NC[C@@H]1CCc2cc(F)cc(-c3cccnc3)c2O1 [Compound 54, {[(2S)-6-fluoro-8-pyridin-3-yl-3,4-dihydro-2H-chromen-2-yl]methyl}amine hydrochloride] | < 7.30 |  |  |  | 
31 | Cc1cc(Cl)ccc1-c1c(F)ccc2c1O[C@@H](CN)CC2 [Compound 72, ((2R)-8-(4-Chloro-2-methylphenyl)-7-fluorochroman-2-yl)methanamine hydrochloride] | ≥ 8.00 |  |  |  | 
32 | Cc1ccccc1-c1c(Cl)ccc2c1O[C@@H](CN)CC2 [Compound 69, ((2R)-7-Chloro-8-o-tolylchroman-2-yl)methanamine hydrochloride] | ≥ 8.00 |  |  |  | 
33 | CSc1ccc2c(c1)C(N1CCN(C)CC1)Cc1ccccc1S2 (stereo not shown) [Methiothepin, reference compound] |  |  |  | 8.34 | 
34 | COc1cc(CC(C)N)c(OC)cc1I (stereo not shown) [[^125I] DOI, reference compound] |  |  |  |  | 9.40
35 | CNC[C@@H]1CCc2cccc(-c3cccnc3)c2O1 [Compound 26, N-methyl-1-[(2S)-8-pyridin-3-yl-3,4-dihydro-2H-chromen-2-yl]methanamine hydrochloride] | < 7.30 |  |  |  | 
36 | NC[C@@H]1CCc2cccc(-c3cccnc3)c2O1 [Compound 34, {[(2S)-8-pyridin-3-yl-3,4-dihydro-2H-chromen-2-yl]methyl}amine hydrochloride] | < 7.30 |  |  |  | 
